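In this assay, cells in 96-well plates receive the compound at five concentrations for 48 hours. Endpoints are linearly interpolated between the surrounding concentrations. TGI: concentration producing complete growth inhibition.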
Experiments:
Experiment in all cases: DTP human tumour cell line panel, 48 h
[1] = system: HCC-2998 colon
[2] = system: NCI-H522 lung
[3] = system: LOX IMVI melanoma
[4] = system: A498 renal
[5] = system: RPMI-8226 leukemia
[6] = system: OVCAR-3 ovarian
[7] = system: SK-MEL-28 melanoma
[8] = system: NCI-H23 lung
[9] = system: KM12 colon
[10] = system: MDA-MB-435
[11] = system: HCT-15 colon
[12] = system: EKVX NSCLC
[13] = system: K-562 leukemia
[14] = system: HT29 colon
[15] = system: CAKI-1 renal
[16] = system: CCRF-CEM leukemia
[17] = system: OVCAR-5 ovarian
[18] = system: SF-539 CNS
[19] = system: M14 melanoma
[20] = system: SK-MEL-2 melanoma
[21] = system: SNB-19 CNS
[22] = system: HL-60(TB) leukemia
[23] = system: U251 CNS
[24] = system: RXF 393 renal
[25] = system: 786-0 renal
[26] = system: NCI-H226 lung
[27] = system: MCF7 breast
[28] = system: NCI/ADR-RES ovarian
[29] = system: ACHN renal
[30] = system: UO-31 renal
[31] = system: BT-549 breast
[32] = system: SF-295 CNS
[33] = system: UACC-62 melanoma
[34] = system: SNB-75 CNS
[35] = system: UACC-257 melanoma
[36] = system: SR leukemia
[37] = system: A549 NSCLC
[38] = system: MDA-MB-231 breast
[39] = system: MALME-3M melanoma
[40] = system: MOLT-4 leukemia
[41] = system: DU-145 prostate
[42] = system: SW-620 colon
[43] = system: NCI-H460 lung
[44] = system: OVCAR-4 ovarian
[45] = system: PC-3 prostate
[46] = system: SK-MEL-5 melanoma
[47] = system: COLO 205 colon
[48] = system: SK-OV-3 ovarian
[49] = system: OVCAR-8 ovarian
[50] = system: HOP-92 NSCLC
[51] = system: HOP-62 NSCLC
[52] = system: MDA-N
[53] = system: SN12C renal
[54] = system: HCT-116 colon
[55] = system: SF-268 CNS
[56] = system: T-47D breast
[57] = system: IGROV1 ovarian
[58] = system: TK-10 renal

CC(CO)CCC(O)C(C)(O)C1CCC2(O)C3=CC(=O)C4CC(O)C(O)CC4(C)C3CCC12C (stereo not given)
TGI [1]: > 100 µM
TGI [2]: > 100 µM
TGI [3]: > 100 µM
TGI [4]: > 100 µM
TGI [5]: > 100 µM
TGI [6]: > 100 µM
TGI [7]: > 100 µM
TGI [8]: > 100 µM
TGI [9]: > 100 µM
TGI [10]: > 100 µM
TGI [11]: > 100 µM
TGI [12]: > 100 µM
TGI [13]: > 100 µM
TGI [14]: > 100 µM
TGI [15]: > 100 µM
TGI [16]: > 100 µM
TGI [17]: > 100 µM
TGI [18]: > 100 µM
TGI [19]: > 100 µM
TGI [20]: > 100 µM
TGI [21]: > 100 µM
TGI [22]: > 100 µM
TGI [23]: > 100 µM
TGI [24]: > 100 µM
TGI [25]: > 100 µM
TGI [26]: > 100 µM
TGI [27]: > 100 µM
TGI [28]: > 100 µM
TGI [29]: > 100 µM
TGI [30]: > 100 µM
TGI [31]: > 100 µM
TGI [32]: > 100 µM
TGI [33]: > 100 µM
TGI [34]: > 100 µM
TGI [35]: > 100 µM
TGI [36]: > 100 µM
TGI [37]: > 100 µM
TGI [38]: > 100 µM
TGI [39]: > 100 µM
TGI [40]: > 100 µM
TGI [41]: > 100 µM
TGI [42]: > 100 µM
TGI [43]: > 100 µM
TGI [44]: > 100 µM
TGI [45]: > 100 µM
TGI [46]: > 100 µM
TGI [47]: > 100 µM
TGI [48]: > 100 µM
TGI [49]: > 100 µM
TGI [50]: > 100 µM
TGI [51]: > 100 µM
TGI [52]: > 100 µM
TGI [53]: > 100 µM
TGI [54]: > 100 µM

c1ccc(P2c3ccccc3Nc3ccccc32)cc1
TGI [1]: > 100 µM
TGI [2]: > 100 µM
TGI [3]: > 100 µM
TGI [4]: 76.6 µM
TGI [6]: 47.3 µM
TGI [7]: > 100 µM
TGI [8]: > 100 µM
TGI [55]: > 100 µM
TGI [9]: > 100 µM
TGI [10]: > 100 µM
TGI [11]: > 100 µM
TGI [12]: > 100 µM
TGI [13]: > 100 µM
TGI [56]: > 100 µM
TGI [14]: > 100 µM
TGI [15]: > 100 µM
TGI [16]: 72 µM
TGI [17]: > 100 µM
TGI [18]: > 100 µM
TGI [19]: > 100 µM
TGI [20]: > 100 µM
TGI [57]: > 100 µM
TGI [21]: > 100 µM
TGI [22]: 55.8 µM
TGI [23]: > 100 µM
TGI [58]: > 100 µM
TGI [24]: > 100 µM
TGI [25]: > 100 µM
TGI [26]: > 100 µM
TGI [27]: > 100 µM
TGI [28]: > 100 µM
TGI [29]: > 100 µM
TGI [30]: > 100 µM
TGI [32]: > 100 µM
TGI [33]: > 100 µM
TGI [34]: 71 µM
TGI [35]: > 100 µM
TGI [36]: 49.4 µM
TGI [37]: > 100 µM
TGI [38]: > 100 µM
TGI [39]: > 100 µM
TGI [40]: 58.7 µM
TGI [41]: > 100 µM
TGI [42]: > 100 µM
TGI [43]: > 100 µM
TGI [44]: > 100 µM
TGI [45]: 87.1 µM
TGI [46]: 82.5 µM
TGI [47]: > 100 µM
TGI [48]: > 100 µM
TGI [49]: > 100 µM
TGI [50]: 97.4 µM
TGI [51]: > 100 µM
TGI [52]: > 100 µM
TGI [53]: > 100 µM
TGI [54]: > 100 µM

CC(=O)OC1COC(n2nc(N)nc2C)C(OC(C)=O)C1OC(C)=O (stereo not given)
TGI [1]: > 100 µM
TGI [2]: > 100 µM
TGI [3]: > 100 µM
TGI [4]: > 100 µM
TGI [5]: > 100 µM
TGI [6]: > 100 µM
TGI [7]: > 100 µM
TGI [8]: > 100 µM
TGI [55]: > 100 µM
TGI [9]: > 100 µM
TGI [10]: > 100 µM
TGI [11]: > 100 µM
TGI [12]: > 100 µM
TGI [13]: > 100 µM
TGI [56]: > 100 µM
TGI [14]: > 100 µM
TGI [15]: > 100 µM
TGI [16]: > 100 µM
TGI [17]: > 100 µM
TGI [19]: > 100 µM
TGI [20]: > 100 µM
TGI [57]: > 100 µM
TGI [21]: > 100 µM
TGI [22]: > 100 µM
TGI [23]: > 100 µM
TGI [58]: > 100 µM
TGI [24]: > 100 µM
TGI [25]: > 100 µM
TGI [26]: > 100 µM
TGI [27]: > 100 µM
TGI [28]: > 100 µM
TGI [29]: > 100 µM
TGI [30]: > 100 µM
TGI [31]: > 100 µM
TGI [32]: > 100 µM
TGI [33]: > 100 µM
TGI [34]: > 100 µM
TGI [35]: > 100 µM
TGI [37]: > 100 µM
TGI [38]: > 100 µM
TGI [39]: > 100 µM
TGI [40]: > 100 µM
TGI [41]: > 100 µM
TGI [42]: > 100 µM
TGI [43]: > 100 µM
TGI [44]: > 100 µM
TGI [45]: > 100 µM
TGI [46]: > 100 µM
TGI [47]: > 100 µM
TGI [48]: > 100 µM
TGI [49]: > 100 µM
TGI [50]: > 100 µM
TGI [51]: > 100 µM
TGI [52]: > 100 µM
TGI [53]: > 100 µM
TGI [54]: > 100 µM

CCN(CC)c1ccc2cc(-c3nc4ccccc4n3C)c(=O)oc2c1
TGI [2]: 0.661 µM
TGI [3]: > 100 µM
TGI [4]: 0.187 µM
TGI [5]: > 31.6 µM
TGI [8]: 29.3 µM
TGI [55]: > 100 µM
TGI [9]: > 100 µM
TGI [10]: 0.334 µM
TGI [11]: > 100 µM
TGI [13]: > 100 µM
TGI [56]: > 100 µM
TGI [14]: 11 µM
TGI [15]: > 100 µM
TGI [16]: > 100 µM
TGI [17]: > 100 µM
TGI [18]: 0.545 µM
TGI [19]: > 100 µM
TGI [20]: 0.68 µM
TGI [57]: 4.79 µM
TGI [21]: > 100 µM
TGI [22]: > 100 µM
TGI [23]: > 41.9 µM
TGI [58]: > 100 µM
TGI [24]: 63.1 µM
TGI [25]: > 48.7 µM
TGI [26]: 1.46 µM
TGI [27]: > 100 µM
TGI [28]: 0.727 µM
TGI [29]: > 100 µM
TGI [30]: > 100 µM
TGI [31]: 0.861 µM
TGI [32]: > 100 µM
TGI [35]: > 100 µM
TGI [36]: > 100 µM
TGI [37]: > 100 µM
TGI [38]: > 54.3 µM
TGI [40]: > 100 µM
TGI [41]: > 24.2 µM
TGI [42]: > 100 µM
TGI [43]: 4.36 µM
TGI [44]: > 100 µM
TGI [46]: 3.42 µM
TGI [48]: 43.6 µM
TGI [49]: > 100 µM
TGI [50]: > 100 µM
TGI [51]: 29.8 µM
TGI [52]: 0.135 µM
TGI [53]: > 100 µM
TGI [54]: > 100 µM

CC(=O)OCc1cc(=O)n2c([nH]c3ccccc32)c1C#N
TGI [1]: > 100 µM
TGI [3]: > 100 µM
TGI [4]: > 100 µM
TGI [6]: > 100 µM
TGI [7]: > 100 µM
TGI [8]: > 100 µM
TGI [11]: > 100 µM
TGI [12]: > 100 µM
TGI [13]: > 100 µM
TGI [56]: > 100 µM
TGI [14]: > 100 µM
TGI [15]: > 100 µM
TGI [16]: > 100 µM
TGI [17]: > 100 µM
TGI [18]: > 100 µM
TGI [19]: > 100 µM
TGI [20]: > 100 µM
TGI [57]: > 100 µM
TGI [21]: > 100 µM
TGI [22]: > 100 µM
TGI [23]: > 100 µM
TGI [58]: > 100 µM
TGI [24]: > 100 µM
TGI [25]: > 100 µM
TGI [26]: > 100 µM
TGI [27]: > 100 µM
TGI [28]: > 100 µM
TGI [29]: > 100 µM
TGI [30]: > 100 µM
TGI [31]: > 100 µM
TGI [32]: > 100 µM
TGI [33]: > 100 µM
TGI [35]: > 100 µM
TGI [37]: > 100 µM
TGI [38]: > 100 µM
TGI [39]: > 100 µM
TGI [40]: > 100 µM
TGI [41]: > 100 µM
TGI [42]: > 100 µM
TGI [43]: 64.8 µM
TGI [44]: 60.9 µM
TGI [45]: > 100 µM
TGI [46]: > 100 µM
TGI [47]: > 100 µM
TGI [48]: > 100 µM
TGI [49]: > 100 µM
TGI [50]: > 100 µM
TGI [52]: > 100 µM
TGI [53]: > 100 µM
TGI [54]: > 100 µM

Reference: PubChem BioAssay (NCI)
